{"source": "patent US20020137929A1", "about": "“1 - (3-heterocyclylphenyl) isothiourea, -isourea, -guanidine and -amidine herbicidal agents” (Intellectual Property Department, BASF Aktiengesellschaft, priority 1998, published 2002)", "key": {"[1]": {"system": "AMBEL (Ragweed, Common)", "test": "Postemergence herbicidal evaluation", "type": "in vivo, Ambrosia artemisifolia", "conditions": "postemergence", "outline": "(§1)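 Young plants, roughly two weeks from seeding, receive the active ingredient as a sprayed dispersion (acetone/water 50/50, 0.5% TWEEN 20) at 40 psi. Doses span about 0.0156 to 0.500 kg/ha. A visual score from 0 to 9 compares treated with control plants four to five weeks on.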"}, "[2]": {"system": "CASOB (Sicklepod)", "test": "Postemergence herbicidal evaluation", "type": "in vivo, Cassia obtusifolia", "conditions": "postemergence", "outline": "as §1"}, "[3]": {"system": "CHEAL (Lambsquarters, Common)", "test": "Postemergence herbicidal evaluation", "type": "in vivo, Chenopodium album", "conditions": "postemergence", "outline": "as §1"}, "[4]": {"system": "GALAP (Galium)", "test": "Postemergence herbicidal evaluation", "type": "in vivo, Galium aparine", "conditions": "postemergence", "outline": "as §1"}, "[5]": {"system": "ECHCG (Barnyardgrass)", "test": "Postemergence herbicidal evaluation", "type": "in vivo, Echinochloa crus-galli", "conditions": "postemergence", "outline": "as §1"}, "[6]": {"system": "SETVI (Foxtail, Green)", "test": "Postemergence herbicidal evaluation", "type": "in vivo, Setaria viridis", "conditions": "postemergence", "outline": "as §1"}, "[7]": {"system": "GLXMAW (Soybean, Williams)", "test": "Postemergence herbicidal evaluation", "type": "in vivo, Glycine max, (L.) Merr. cv Williams", "conditions": "postemergence", "outline": "as §1"}, "[8]": {"system": "ORYSAT (Rice, Tebonnet)", "test": "Postemergence herbicidal evaluation", "type": "in vivo, Oryza sativa, (L.) Tebonnet", "conditions": "postemergence", "outline": "as §1"}, "[9]": {"system": "CASOB (Sicklepod)", "test": "Preemergence herbicidal evaluation", "type": "in vivo, Cassia obtusifolia", "conditions": "rated 4-5 weeks after treatment", "outline": "(§2)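 Herbicidal effect scored visually, 0-9, at 4 to 5 weeks against a control; compound applied preemergence by aqueous acetone spray to seeded soil at about 0.0156 to 0.500 kg/ha.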"}, "[10]": {"system": "GALAP (Galium)", "test": "Preemergence herbicidal evaluation", "type": "in vivo, Galium aparine", "conditions": "rated 4-5 weeks after treatment", "outline": "as §2"}, "[11]": {"system": "ZEAMX (Corn, Field)", "test": "Preemergence herbicidal evaluation", "type": "in vivo, Zea mays", "conditions": "rated 4-5 weeks after treatment", "outline": "as §2"}, "[12]": {"system": "CYPIR (Rice Flatsedge)", "test": "Preemergence weed control under flooded paddy conditions", "type": "in vivo, Cyperus iria", "conditions": "rated 3-4 weeks after treatment", "outline": "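Visual injury scored 0-9 against control three to four weeks post-treatment, greenhouse-grown. Application: acetone/water (50/50) solutions dosed directly into flood water (1.5-3 cm over silt loam, planted top 0.5 cm), roughly 0.0313 to 0.500 kg/ha active ingredient.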"}, "[13]": {"system": "CYPSE (Flatsedge)", "test": "Preemergence weed control under flooded paddy conditions", "type": "in vivo, Cyperus serotinus", "conditions": "rated 3-4 weeks after treatment", "outline": "(§3)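 First, seeds or propagules go into the top 0.5 cm of silt loam; next, water is held 1.5 to 3 cm over the soil; then compound (50/50 acetone/water) is pipetted into it at about 0.0313 to 0.500 kg/ha; finally plants are rated visually 0-9 after three to four weeks.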"}, "[14]": {"system": "SAGPY (Arrowhead (Pygmaea))", "test": "Preemergence weed control under flooded paddy conditions", "type": "in vivo, Sagittaria pygmaea", "conditions": "rated 3-4 weeks after treatment", "outline": "as §3"}, "[15]": {"system": "CYPSE (Flatsedge)", "test": "Postemergence weed control under flooded paddy conditions", "type": "in vivo, Cyperus serotinus", "conditions": "postemergence weeds, rated 3 to 4 weeks after treatment", "outline": "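Injury ratings (0–9 scale covering stand, vigor, malformation, size, chlorosis and overall appearance versus control) were made three to four weeks after treatment. Test material, about 0.0313 to 0.500 kg/ha a.i. in 50/50 v/v aqueous/acetone, was added to flood water 1.5 to 3 cm deep over 3 to 5 cm weeds and 1.5 to 2.5 leaf rice.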"}}}
{"molecule": "C=CCN1C(=O)C(CC(=O)OC(C)C)SC1=Nc1cc(-n2c(=O)cc(C(F)(F)F)n(C)c2=O)c(F)cc1Cl", "note": "(stereo not drawn) [Compound 66, Isopropyl 3-allyl-2-{{2-chloro-5-[3,6-dihydro-3-methyl-2,6-dioxo-4-(trifluoromethyl)-1(2H)-pyrimidinyl]-4-fluorophenyl}imino}-4-oxo-5-thiazolidineacetate]", "values": [{"measurement": "AMBEL herbicidal rating", "setting": "[1]; rate 0.0158 kg/ha", "result": 6.0}, {"measurement": "AMBEL herbicidal rating", "setting": "[1]; rate 0.0313 kg/ha", "result": 9.0}, {"measurement": "AMBEL herbicidal rating", "setting": "[1]; rate 0.0625 kg/ha", "result": 9.0}, {"measurement": "AMBEL herbicidal rating", "setting": "[1]; rate 0.1250 kg/ha", "result": 9.0}, {"measurement": "CASOB herbicidal rating", "setting": "[2]; rate 0.0158 kg/ha", "result": 0.0}, {"measurement": "CASOB herbicidal rating", "setting": "[2]; rate 0.0313 kg/ha", "result": 0.0}, {"measurement": "CASOB herbicidal rating", "setting": "[2]; rate 0.0625 kg/ha", "result": 3.0}, {"measurement": "CASOB herbicidal rating", "setting": "[2]; rate 0.1250 kg/ha", "result": 6.0}, {"measurement": "CHEAL herbicidal rating", "setting": "[3]; rate 0.0158 kg/ha", "result": 5.0}, {"measurement": "CHEAL herbicidal rating", "setting": "[3]; rate 0.0313 kg/ha", "result": 9.0}, {"measurement": "CHEAL herbicidal rating", "setting": "[3]; rate 0.0625 kg/ha", "result": 9.0}, {"measurement": "CHEAL herbicidal rating", "setting": "[3]; rate 0.1250 kg/ha", "result": 9.0}, {"measurement": "GALAP herbicidal rating", "setting": "[4]; rate 0.0158 kg/ha", "result": 2.0}, {"measurement": "GALAP herbicidal rating", "setting": "[4]; rate 0.0313 kg/ha", "result": 3.0}, {"measurement": "GALAP herbicidal rating", "setting": "[4]; rate 0.0625 kg/ha", "result": 4.0}, {"measurement": "GALAP herbicidal rating", "setting": "[4]; rate 0.1250 kg/ha", "result": 9.0}, {"measurement": "ECHCG herbicidal rating", "setting": "[5]; rate 0.0158 kg/ha", "result": 2.0}, {"measurement": "ECHCG herbicidal rating", "setting": "[5]; rate 0.0313 kg/ha", "result": 9.0}, {"measurement": "ECHCG herbicidal rating", "setting": "[5]; rate 0.0625 kg/ha", "result": 9.0}, {"measurement": "ECHCG herbicidal rating", "setting": "[5]; rate 0.1250 kg/ha", "result": 9.0}, {"measurement": "SETVI herbicidal rating", "setting": "[6]; rate 0.0158 kg/ha", "result": 2.0}, {"measurement": "SETVI herbicidal rating", "setting": "[6]; rate 0.0313 kg/ha", "result": 9.0}, {"measurement": "SETVI herbicidal rating", "setting": "[6]; rate 0.0625 kg/ha", "result": 9.0}, {"measurement": "SETVI herbicidal rating", "setting": "[6]; rate 0.1250 kg/ha", "result": 9.0}, {"measurement": "GLXMAW herbicidal rating", "setting": "[7]; rate 0.0158 kg/ha", "result": 7.0}, {"measurement": "GLXMAW herbicidal rating", "setting": "[7]; rate 0.0313 kg/ha", "result": 8.5}, {"measurement": "GLXMAW herbicidal rating", "setting": "[7]; rate 0.0625 kg/ha", "result": 8.5}, {"measurement": "GLXMAW herbicidal rating", "setting": "[7]; rate 0.1250 kg/ha", "result": 9.0}, {"measurement": "ORYSAT herbicidal rating", "setting": "[8]; rate 0.0158 kg/ha", "result": 3.5}, {"measurement": "ORYSAT herbicidal rating", "setting": "[8]; rate 0.0313 kg/ha", "result": 5.0}, {"measurement": "ORYSAT herbicidal rating", "setting": "[8]; rate 0.0625 kg/ha", "result": 5.5}, {"measurement": "ORYSAT herbicidal rating", "setting": "[8]; rate 0.1250 kg/ha", "result": 5.5}, {"measurement": "Preemergence herbicidal rating CASOB", "setting": "[9]; rate 0.0156 kg/ha", "result": 0.0}, {"measurement": "Preemergence herbicidal rating CASOB", "setting": "[9]; rate 0.0313 kg/ha", "result": 0.0}, {"measurement": "Preemergence herbicidal rating CASOB", "setting": "[9]; rate 0.0625 kg/ha", "result": 0.0}, {"measurement": "Preemergence herbicidal rating CASOB", "setting": "[9]; rate 0.1250 kg/ha", "result": 0.5}, {"measurement": "Preemergence herbicidal rating CASOB", "setting": "[9]; rate 0.2500 kg/ha", "result": 0.5}, {"measurement": "Preemergence herbicidal rating CASOB", "setting": "[9]; rate 0.5000 kg/ha", "result": 3.0}, {"measurement": "Preemergence herbicidal rating GALAP", "setting": "[10]; rate 0.0156 kg/ha", "result": 0.0}, {"measurement": "Preemergence herbicidal rating GALAP", "setting": "[10]; rate 0.0313 kg/ha", "result": 0.0}, {"measurement": "Preemergence herbicidal rating GALAP", "setting": "[10]; rate 0.0625 kg/ha", "result": 0.0}, {"measurement": "Preemergence herbicidal rating GALAP", "setting": "[10]; rate 0.1250 kg/ha", "result": 3.5}, {"measurement": "Preemergence herbicidal rating GALAP", "setting": "[10]; rate 0.2500 kg/ha", "result": 8.0}, {"measurement": "Preemergence herbicidal rating GALAP", "setting": "[10]; rate 0.5000 kg/ha", "result": 9.0}, {"measurement": "Preemergence herbicidal rating ZEAMX", "setting": "[11]; rate 0.0156 kg/ha", "result": 0.5}, {"measurement": "Preemergence herbicidal rating ZEAMX", "setting": "[11]; rate 0.0313 kg/ha", "result": 0.0}, {"measurement": "Preemergence herbicidal rating ZEAMX", "setting": "[11]; rate 0.0625 kg/ha", "result": 0.5}, {"measurement": "Preemergence herbicidal rating ZEAMX", "setting": "[11]; rate 0.1250 kg/ha", "result": 1.0}, {"measurement": "Preemergence herbicidal rating ZEAMX", "setting": "[11]; rate 0.2500 kg/ha", "result": 2.5}, {"measurement": "Preemergence herbicidal rating ZEAMX", "setting": "[11]; rate 0.5000 kg/ha", "result": 7.0}, {"measurement": "CYPIR herbicidal effect rating", "setting": "[12]; 0.0313 kg/ha", "result": 6.0}, {"measurement": "CYPIR herbicidal effect rating", "setting": "[12]; 0.0625 kg/ha", "result": 6.0}, {"measurement": "CYPIR herbicidal effect rating", "setting": "[12]; 0.1250 kg/ha", "result": 7.0}, {"measurement": "CYPIR herbicidal effect rating", "setting": "[12]; 0.2500 kg/ha", "result": 7.0}, {"measurement": "CYPSE herbicidal effect rating", "setting": "[13]; 0.0313 kg/ha", "result": 0.0}, {"measurement": "CYPSE herbicidal effect rating", "setting": "[13]; 0.0625 kg/ha", "result": 0.0}, {"measurement": "CYPSE herbicidal effect rating", "setting": "[13]; 0.1250 kg/ha", "result": 4.0}, {"measurement": "CYPSE herbicidal effect rating", "setting": "[13]; 0.2500 kg/ha", "result": 4.0}, {"measurement": "SAGPY herbicidal effect rating", "setting": "[14]; 0.0313 kg/ha", "result": 3.0}, {"measurement": "SAGPY herbicidal effect rating", "setting": "[14]; 0.0625 kg/ha", "result": 4.0}, {"measurement": "SAGPY herbicidal effect rating", "setting": "[14]; 0.1250 kg/ha", "result": 4.0}, {"measurement": "SAGPY herbicidal effect rating", "setting": "[14]; 0.2500 kg/ha", "result": 4.0}, {"measurement": "Herbicidal rating CYPSE", "setting": "[15]; Rate 0.0313 kg/ha", "result": 0.0}, {"measurement": "Herbicidal rating CYPSE", "setting": "[15]; Rate 0.0625 kg/ha", "result": 0.0}, {"measurement": "Herbicidal rating CYPSE", "setting": "[15]; Rate 0.1250 kg/ha", "result": 4.0}, {"measurement": "Herbicidal rating CYPSE", "setting": "[15]; Rate 0.2500 kg/ha", "result": 4.0}]}
